Test results reported in patent US10022527B2, “Immersion device” (BSN medical GmbH, priority 2013, dated 2018).

Tests used:
[1] = Stability test of the NO content of the UV-generated NO-containing buffer solution (chemiluminescence detection); format: physicochemical; details: approximately 150 μM NO in buffered tap water pH 7.0 with 1.45 mM NaNO2 and 10 mM Na ascorbate; over a time span of 20 minutes; not statistically significant
Protocol: (§1) The NO-generating unit contained tap water, buffer salts (8 g/l NaCl+0.2 g/l KCl+1.424 g/l Na2HPO4+0.2 g/l KH2PO4, pH=7.0), 1.45 mM NaNO2 and 10 mM Na ascorbate.
(§2) UV radiation of this solution containing nitrite yielded a solution that contained approximately 150 μM NO. The stability of the generated NO and the occurrence of oxidation products were analyzed on the basis of this solution. Moreover, the effect in terms of perfusion and erythema formation was tested within the scope of its use as a foot bath.
This solution first underwent a stability test, that is to say, it was ascertained how the content of NO changes over a time span of 20 minutes. Every two minutes an aliquot of 10 ml of the bathing solution was pipetted into a flask (volume capacity of 175 ml) through which helium gas was flowing (100 ml/min) and which had already been filled with 40 ml of a PBS solution (pH of 7.4). During the entire procedure, the helium-gas mixtures escaping from the flask were conveyed directly into an NO analysis unit (Chemiluminescence Detector—CLD 822 Sr made by Eco Physics of Duernten, Switzerland) which detected and recorded the NO amounts in ppm (parts per million) that were contained in the gas mixture (in this context, also see Opländer et al. 2010—Nitric Oxide—Bio. Ch. 23: 275-283). […]

[2] = Generation of oxidation products (NO2) in the NO-containing solution; format: physicochemical; details: same solution
Protocol: as §1, §2
This solution first underwent a stability test, that is to say, it was ascertained how the content of NO changes over a time span of 20 minutes. […] During the entire procedure, the helium-gas mixtures escaping from the flask were conveyed directly into an NO analysis unit (Chemiluminescence Detector—CLD 822 Sr made by Eco Physics of Duernten, Switzerland) which detected and recorded the NO amounts in ppm (parts per million) that were contained in the gas mixture (in this context, also see Opländer et al. 2010—Nitric Oxide—Bio. Ch. 23: 275-283).
Using the solution described above, parallel to the above-mentioned NO detection, the amount of nitrogen dioxide radicals, as the most important oxidation product of NO, was detected during the same measurement. […]

[3] = cited from earlier work
[4] = cited from earlier work; remark: listed apart in the source

## [N]=O [NO, nitric oxide]
[1]
  drop of NO content: about 10%
[2]; occurred only after 10 minutes
  concentration of NO2 (oxidation product of NO): ~1.5 ppm
[2]; up to the maximum time value of 20 minutes
  measured NO2 values compared with the initial values: not significantly higher than the initial values
[3]
  maximum solubility of NO in aqueous solutions: approximately 2 mM
[4]; at 37° C.
  diffusion coefficient of NO relative to that of oxygen or carbon monoxide: approximately 1.4
[4]; calculated on the basis of the diffusion coefficient
  diffusion path that can be achieved in the tissues: 500 μm
